Source: the NIST ThermoML archive (doi:10.1016/j.jct.2015.01.004)
Values joined by “and” are separate entries in the source; they are usually repeats but may differ in a detail not shown here. Identical values can stand only once. Numbers after ± are expanded uncertainties.

Assay: molar heat capacity at constant pressure; xn = mol fraction of the nth substance listed
Conditions: 100 kPa

Compound: [Si] [silicon] + [Li]
- molar heat capacity at constant pressure (2.03 K, Crystal of intercomponent compound 1, relaxation calorimetry, x2 = 0.81): 0.0088 ± 0.0007 J/K/mol
- molar heat capacity at constant pressure (2.03 K, Crystal of intercomponent compound 2, relaxation calorimeter, x2 = 0.804): 0.0022 ± 0.0002 J/K/mol
- molar heat capacity at constant pressure (2.13 K, Crystal of intercomponent compound 1, relaxation calorimetry, x2 = 0.81): 0.0091 ± 0.0007 J/K/mol
- molar heat capacity at constant pressure (2.13 K, Crystal of intercomponent compound 2, relaxation calorimeter, x2 = 0.804): 0.0023 ± 0.0002 J/K/mol
- molar heat capacity at constant pressure (2.14 K, Crystal of intercomponent compound 2, relaxation calorimeter, x2 = 0.804): 0.0022 ± 0.0002 J/K/mol
- molar heat capacity at constant pressure (2.25 K, Crystal of intercomponent compound 1, relaxation calorimetry, x2 = 0.81): 0.0096 ± 0.0008 J/K/mol
- molar heat capacity at constant pressure (2.25 K, Crystal of intercomponent compound 2, relaxation calorimeter, x2 = 0.804): 0.0024 ± 0.0002 J/K/mol and 0.0023 ± 0.0002 J/K/mol
- molar heat capacity at constant pressure (2.37 K, Crystal of intercomponent compound 1, relaxation calorimetry, x2 = 0.81): 0.0101 ± 0.0008 J/K/mol
- molar heat capacity at constant pressure (2.37 K, Crystal of intercomponent compound 2, relaxation calorimeter, x2 = 0.804): 0.0024 ± 0.0002 J/K/mol and 0.0025 ± 0.0002 J/K/mol
- molar heat capacity at constant pressure (2.49 K, Crystal of intercomponent compound 1, relaxation calorimetry, x2 = 0.81): 0.0107 ± 0.0008 J/K/mol
- molar heat capacity at constant pressure (2.49 K, Crystal of intercomponent compound 2, relaxation calorimeter, x2 = 0.804): 0.0026 ± 0.0002 J/K/mol
- molar heat capacity at constant pressure (2.5 K, Crystal of intercomponent compound 2, relaxation calorimeter, x2 = 0.804): 0.0025 ± 0.0002 J/K/mol
- molar heat capacity at constant pressure (2.63 K, Crystal of intercomponent compound 1, relaxation calorimetry, x2 = 0.81): 0.0111 ± 0.0009 J/K/mol
- molar heat capacity at constant pressure (2.63 K, Crystal of intercomponent compound 2, relaxation calorimeter, x2 = 0.804): 0.0028 ± 0.0002 J/K/mol and 0.0025 ± 0.0002 J/K/mol
- molar heat capacity at constant pressure (2.77 K, Crystal of intercomponent compound 1, relaxation calorimetry, x2 = 0.81): 0.0116 ± 0.0009 J/K/mol
- molar heat capacity at constant pressure (2.77 K, Crystal of intercomponent compound 2, relaxation calorimeter, x2 = 0.804): 0.0028 ± 0.0002 J/K/mol
- molar heat capacity at constant pressure (2.92 K, Crystal of intercomponent compound 1, relaxation calorimetry, x2 = 0.81): 0.0121 ± 0.001 J/K/mol
- molar heat capacity at constant pressure (2.92 K, Crystal of intercomponent compound 2, relaxation calorimeter, x2 = 0.804): 0.0031 ± 0.0003 J/K/mol and 0.003 ± 0.0002 J/K/mol
- molar heat capacity at constant pressure (3.08 K, Crystal of intercomponent compound 1, relaxation calorimetry, x2 = 0.81): 0.0126 ± 0.001 J/K/mol
- molar heat capacity at constant pressure (3.08 K, Crystal of intercomponent compound 2, relaxation calorimeter, x2 = 0.804): 0.0032 ± 0.0003 J/K/mol and 0.003 ± 0.0002 J/K/mol
- molar heat capacity at constant pressure (3.24 K, Crystal of intercomponent compound 1, relaxation calorimetry, x2 = 0.81): 0.0133 ± 0.001 J/K/mol
- molar heat capacity at constant pressure (3.24 K, Crystal of intercomponent compound 2, relaxation calorimeter, x2 = 0.804): 0.0035 ± 0.0003 J/K/mol and 0.0032 ± 0.0003 J/K/mol
- molar heat capacity at constant pressure (3.41 K, Crystal of intercomponent compound 1, relaxation calorimetry, x2 = 0.81): 0.0135 ± 0.0011 J/K/mol
- molar heat capacity at constant pressure (3.41 K, Crystal of intercomponent compound 2, relaxation calorimeter, x2 = 0.804): 0.0036 ± 0.0003 J/K/mol
- molar heat capacity at constant pressure (3.6 K, Crystal of intercomponent compound 1, relaxation calorimetry, x2 = 0.81): 0.0141 ± 0.0011 J/K/mol
- molar heat capacity at constant pressure (3.6 K, Crystal of intercomponent compound 2, relaxation calorimeter, x2 = 0.804): 0.0039 ± 0.0003 J/K/mol and 0.0036 ± 0.0003 J/K/mol
- molar heat capacity at constant pressure (3.79 K, Crystal of intercomponent compound 1, relaxation calorimetry, x2 = 0.81): 0.015 ± 0.0012 J/K/mol
- molar heat capacity at constant pressure (3.79 K, Crystal of intercomponent compound 2, relaxation calorimeter, x2 = 0.804): 0.0041 ± 0.0003 J/K/mol and 0.004 ± 0.0003 J/K/mol
- molar heat capacity at constant pressure (3.99 K, Crystal of intercomponent compound 1, relaxation calorimetry, x2 = 0.81): 0.0157 ± 0.0012 J/K/mol
- molar heat capacity at constant pressure (3.99 K, Crystal of intercomponent compound 2, relaxation calorimeter, x2 = 0.804): 0.0044 ± 0.0004 J/K/mol and 0.0042 ± 0.0003 J/K/mol
- molar heat capacity at constant pressure (4.2 K, Crystal of intercomponent compound 1, relaxation calorimetry, x2 = 0.81): 0.0163 ± 0.0013 J/K/mol
- molar heat capacity at constant pressure (4.2 K, Crystal of intercomponent compound 2, relaxation calorimeter, x2 = 0.804): 0.0047 ± 0.0004 J/K/mol and 0.0044 ± 0.0004 J/K/mol
- molar heat capacity at constant pressure (4.43 K, Crystal of intercomponent compound 1, relaxation calorimetry, x2 = 0.81): 0.0172 ± 0.0014 J/K/mol
- molar heat capacity at constant pressure (4.43 K, Crystal of intercomponent compound 2, relaxation calorimeter, x2 = 0.804): 0.0048 ± 0.0004 J/K/mol and 0.005 ± 0.0004 J/K/mol
- molar heat capacity at constant pressure (4.66 K, Crystal of intercomponent compound 2, relaxation calorimeter, x2 = 0.804): 0.0051 ± 0.0004 J/K/mol
- molar heat capacity at constant pressure (4.67 K, Crystal of intercomponent compound 1, relaxation calorimetry, x2 = 0.81): 0.0175 ± 0.0014 J/K/mol
- molar heat capacity at constant pressure (4.67 K, Crystal of intercomponent compound 2, relaxation calorimeter, x2 = 0.804): 0.0052 ± 0.0004 J/K/mol
- molar heat capacity at constant pressure (4.91 K, Crystal of intercomponent compound 2, relaxation calorimeter, x2 = 0.804): 0.0056 ± 0.0004 J/K/mol
- molar heat capacity at constant pressure (4.92 K, Crystal of intercomponent compound 1, relaxation calorimetry, x2 = 0.81): 0.0182 ± 0.0014 J/K/mol
- molar heat capacity at constant pressure (4.92 K, Crystal of intercomponent compound 2, relaxation calorimeter, x2 = 0.804): 0.0054 ± 0.0004 J/K/mol
- molar heat capacity at constant pressure (5 K, Crystal of intercomponent compound 1, relaxation calorimetry + DSC, x2 = 0.81): 0.0184 ± 0.0014 J/K/mol
- molar heat capacity at constant pressure (5 K, Crystal of intercomponent compound 2, relaxation calorimetry + DSC, x2 = 0.804): 0.0056 ± 0.0005 J/K/mol
- molar heat capacity at constant pressure (5.18 K, Crystal of intercomponent compound 1, relaxation calorimetry, x2 = 0.81): 0.0193 ± 0.0015 J/K/mol
- molar heat capacity at constant pressure (5.18 K, Crystal of intercomponent compound 2, relaxation calorimeter, x2 = 0.804): 0.006 ± 0.0005 J/K/mol and 0.0057 ± 0.0005 J/K/mol
- molar heat capacity at constant pressure (5.46 K, Crystal of intercomponent compound 2, relaxation calorimeter, x2 = 0.804): 0.0064 ± 0.0005 J/K/mol
- molar heat capacity at constant pressure (5.47 K, Crystal of intercomponent compound 1, relaxation calorimetry, x2 = 0.81): 0.0201 ± 0.0016 J/K/mol
- molar heat capacity at constant pressure (5.47 K, Crystal of intercomponent compound 2, relaxation calorimeter, x2 = 0.804): 0.0061 ± 0.0005 J/K/mol
- molar heat capacity at constant pressure (5.76 K, Crystal of intercomponent compound 1, relaxation calorimetry, x2 = 0.81): 0.0206 ± 0.0016 J/K/mol
- molar heat capacity at constant pressure (5.76 K, Crystal of intercomponent compound 2, relaxation calorimeter, x2 = 0.804): 0.007 ± 0.0006 J/K/mol and 0.0066 ± 0.0005 J/K/mol
- molar heat capacity at constant pressure (6.07 K, Crystal of intercomponent compound 1, relaxation calorimetry, x2 = 0.81): 0.0218 ± 0.0017 J/K/mol
- molar heat capacity at constant pressure (6.07 K, Crystal of intercomponent compound 2, relaxation calorimeter, x2 = 0.804): 0.0075 ± 0.0006 J/K/mol and 0.0071 ± 0.0006 J/K/mol
- molar heat capacity at constant pressure (6.39 K, Crystal of intercomponent compound 1, relaxation calorimetry, x2 = 0.81): 0.0227 ± 0.0018 J/K/mol
- molar heat capacity at constant pressure (6.39 K, Crystal of intercomponent compound 2, relaxation calorimeter, x2 = 0.804): 0.0083 ± 0.0007 J/K/mol and 0.0079 ± 0.0006 J/K/mol
- molar heat capacity at constant pressure (6.73 K, Crystal of intercomponent compound 1, relaxation calorimetry, x2 = 0.81): 0.0242 ± 0.0019 J/K/mol
- molar heat capacity at constant pressure (6.73 K, Crystal of intercomponent compound 2, relaxation calorimeter, x2 = 0.804): 0.0091 ± 0.0007 J/K/mol and 0.0088 ± 0.0007 J/K/mol
- molar heat capacity at constant pressure (7.09 K, Crystal of intercomponent compound 1, relaxation calorimetry, x2 = 0.81): 0.0252 ± 0.002 J/K/mol
- molar heat capacity at constant pressure (7.09 K, Crystal of intercomponent compound 2, relaxation calorimeter, x2 = 0.804): 0.0098 ± 0.0008 J/K/mol and 0.01 ± 0.0008 J/K/mol
- molar heat capacity at constant pressure (7.47 K, Crystal of intercomponent compound 1, relaxation calorimetry, x2 = 0.81): 0.0267 ± 0.0021 J/K/mol
- molar heat capacity at constant pressure (7.47 K, Crystal of intercomponent compound 2, relaxation calorimeter, x2 = 0.804): 0.0113 ± 0.0009 J/K/mol and 0.0109 ± 0.0009 J/K/mol
- molar heat capacity at constant pressure (7.87 K, Crystal of intercomponent compound 1, relaxation calorimetry, x2 = 0.81): 0.0284 ± 0.0022 J/K/mol
- molar heat capacity at constant pressure (7.87 K, Crystal of intercomponent compound 2, relaxation calorimeter, x2 = 0.804): 0.0126 ± 0.001 J/K/mol and 0.0123 ± 0.001 J/K/mol
- molar heat capacity at constant pressure (8.29 K, Crystal of intercomponent compound 2, relaxation calorimeter, x2 = 0.804): 0.0143 ± 0.0011 J/K/mol and 0.0139 ± 0.0011 J/K/mol
- molar heat capacity at constant pressure (8.3 K, Crystal of intercomponent compound 1, relaxation calorimetry, x2 = 0.81): 0.0304 ± 0.0024 J/K/mol
- molar heat capacity at constant pressure (8.74 K, Crystal of intercomponent compound 1, relaxation calorimetry, x2 = 0.81): 0.0327 ± 0.0026 J/K/mol
- molar heat capacity at constant pressure (8.74 K, Crystal of intercomponent compound 2, relaxation calorimeter, x2 = 0.804): 0.016 ± 0.0013 J/K/mol and 0.0162 ± 0.0013 J/K/mol
- molar heat capacity at constant pressure (9.2 K, Crystal of intercomponent compound 1, relaxation calorimetry, x2 = 0.81): 0.0351 ± 0.0028 J/K/mol
- molar heat capacity at constant pressure (9.2 K, Crystal of intercomponent compound 2, relaxation calorimeter, x2 = 0.804): 0.0183 ± 0.0014 J/K/mol and 0.0187 ± 0.0015 J/K/mol
- molar heat capacity at constant pressure (9.69 K, Crystal of intercomponent compound 2, relaxation calorimeter, x2 = 0.804): 0.0216 ± 0.0017 J/K/mol and 0.0208 ± 0.0016 J/K/mol
- molar heat capacity at constant pressure (9.7 K, Crystal of intercomponent compound 1, relaxation calorimetry, x2 = 0.81): 0.038 ± 0.003 J/K/mol
- molar heat capacity at constant pressure (10 K, Crystal of intercomponent compound 1, relaxation calorimetry + DSC, x2 = 0.81): 0.0403 ± 0.0032 J/K/mol
- molar heat capacity at constant pressure (10 K, Crystal of intercomponent compound 2, relaxation calorimetry + DSC, x2 = 0.804): 0.0233 ± 0.002 J/K/mol
- molar heat capacity at constant pressure (10.22 K, Crystal of intercomponent compound 1, relaxation calorimetry, x2 = 0.81): 0.0412 ± 0.0032 J/K/mol
- molar heat capacity at constant pressure (10.22 K, Crystal of intercomponent compound 2, relaxation calorimeter, x2 = 0.804): 0.0245 ± 0.0019 J/K/mol and 0.025 ± 0.002 J/K/mol
- molar heat capacity at constant pressure (10.75 K, Crystal of intercomponent compound 1, relaxation calorimetry, x2 = 0.81): 0.0449 ± 0.0035 J/K/mol
- molar heat capacity at constant pressure (10.75 K, Crystal of intercomponent compound 2, relaxation calorimeter, x2 = 0.804): 0.0286 ± 0.0022 J/K/mol and 0.0291 ± 0.0023 J/K/mol
- molar heat capacity at constant pressure (11.32 K, Crystal of intercomponent compound 1, relaxation calorimetry, x2 = 0.81): 0.0492 ± 0.0039 J/K/mol
- molar heat capacity at constant pressure (11.32 K, Crystal of intercomponent compound 2, relaxation calorimeter, x2 = 0.804): 0.0342 ± 0.0027 J/K/mol and 0.0335 ± 0.0026 J/K/mol
- molar heat capacity at constant pressure (11.93 K, Crystal of intercomponent compound 1, relaxation calorimetry, x2 = 0.81): 0.0547 ± 0.0043 J/K/mol
- molar heat capacity at constant pressure (11.93 K, Crystal of intercomponent compound 2, relaxation calorimeter, x2 = 0.804): 0.0403 ± 0.0032 J/K/mol and 0.0398 ± 0.0031 J/K/mol
- molar heat capacity at constant pressure (12.56 K, Crystal of intercomponent compound 1, relaxation calorimetry, x2 = 0.81): 0.0613 ± 0.0048 J/K/mol
